# Experimental data published in patent publication US6737383B1, “Herbicidal oxadiazolidines” (priority 1999, dated 2004).
# What was measured:
# crabgrass = assay: Test B pre/postemergence crabgrass; type: in vivo, Digitaria sanguinalis
# In short: (§1)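 Test chemicals in a non-phytotoxic solvent mixture with surfactant were sprayed preemergence onto planted seeds and postemergence onto plants 2 to 18 cm tall (1- to 4-leaf stage). After twelve to sixteen days in a greenhouse, injury was visually rated against untreated controls from 0 (no effect) to 10 (complete control).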
# cocklebur = assay: Test B pre/postemergence cocklebur; type: in vivo, Xanthium strumarium
# In short: as §1
# purple nutsedge = assay: Test B pre/postemergence purple nutsedge; type: in vivo, Cyperus rotundus
# In short: as §1
# corn = assay: Test B pre/postemergence corn; type: in vivo, Zea mays
# In short: as §1
# wild oat = assay: Test B pre/postemergence wild oat; type: in vivo, Avena fatua
# In short: as §1
# surinam grass = assay: Test B pre/postemergence surinam grass; type: in vivo, Brachiaria decumbens
# In short: as §1
# bamyardgrass = assay: Test B flood test barnyardgrass; type: in vivo, Echinochloa crus-galli
# In short: (§2)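 Flood test on plants grown to the 2-leaf stage; treated plants kept in greenhouse twelve to sixteen days, then visually rated against controls on a 0 (no effect) to 10 (complete control) scale.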
# smallflower flatsedge = assay: Test B flood test smallflower flatsedge; type: in vivo, Cyperus difformis
# In short: as §2
# velvetleaf = assay: Test B pre/postemergence velvetleaf; type: in vivo, Abutilon theophrasti
# In short: as §1
# morningglory = assay: Test B pre/postemergence morningglory; type: in vivo, Ipomoea hederacea
# In short: as §1
# giant foxtail = assay: Test B pre/postemergence giant foxtail; type: in vivo, Setaria faberii
# In short: as §1
# pigweed = assay: Test B pre/postemergence pigweed; type: in vivo, Amaranthus retroflexus
# In short: as §1
# soybean = assay: Test B pre/postemergence soybean; type: in vivo, Glycine max
# In short: as §1
# blackgrass = assay: Test B pre/postemergence blackgrass; type: in vivo, Alopecurus myosuroides
# In short: as §1
# sugar beet = assay: Test B pre/postemergence sugar beet; type: in vivo, Beta vulgaris
# In short: as §1
# rape = assay: Test B pre/postemergence rape; type: in vivo, Brassica napus
# In short: as §1
# [1] = Preemergence, Rate 62 g/ha, scale of 0 to 10 where 0 is no effect and 10 is complete control
# [2] = Preemergence, Rate 250 g/ha, scale of 0 to 10 where 0 is no effect and 10 is complete control
# [3] = Preemergence, Rate 500 g/ha, scale of 0 to 10 where 0 is no effect and 10 is complete control
# [4] = Rate 62 g/ha, Postemergence, scale 0 to 10 (0 no effect, 10 complete control)
# [5] = Rate 125 g/ha, Postemergence, scale of 0 to 10 where 0 is no effect and 10 is complete control
# [6] = Rate 250 g/ha, Postemergence, scale of 0 to 10 where 0 is no effect and 10 is complete control
# [7] = Rate 500 g/ha, Postemergence, scale 0 to 10, 0 no effect, 10 complete control
# [8] = Rate 62 g/ha, headed Pre-emergence (flood test species), scale 0 to 10 (0 no effect, 10 complete control)
# [9] = Rate 125 g/ha, Pre-emergence, flood test species, scale 0 to 10 where 0 is no effect and 10 is complete control
# [10] = Rate 250 g/ha, Pre-emergence, flood-test species, scale 0 to 10, 0 is no effect, 10 is complete control
# [11] = Rate 500 g/ha, Pre-emergence, flood test species, scale 0 to 10 (0 no effect, 10 complete control)
compound,measurement,setting,value
CC(C)N(C(=O)n1oc(=O)n(Cc2nnsc2Cl)c1=O)c1ccccc1 [Compound 321],Crabgrass plant response rating,crabgrass; [1],0
same,Crabgrass plant response rating (0 to 10 scale),"crabgrass; Preemergence, Rate 125 g/ha",2
same,Crabgrass plant response rating,crabgrass; [2],3
same,Crabgrass plant response rating,crabgrass; [3],4
same,Crabgrass plant response rating,crabgrass; [4],0
same,Crabgrass plant response rating,crabgrass; [5],0
same,"Plant response rating, Crabgrass",crabgrass; [6],2
same,Cocklebur plant response rating,cocklebur; [1],0
same,Cocklebur plant response rating (0 to 10 scale),"cocklebur; Preemergence, Rate 125 g/ha",0
same,Cocklebur plant response rating,cocklebur; [2],0
same,Cocklebur plant response rating,cocklebur; [3],0
same,Cocklebur plant response rating,cocklebur; [4],0
same,Cocklebur plant response rating,cocklebur; [5],0
same,"Plant response rating, Cocklebur",cocklebur; [6],0
same,Cocklebur plant response rating,cocklebur; [7],0
same,Nutsedge plant response rating,purple nutsedge; [1],0
same,Nutsedge plant response rating (0 to 10 scale),"purple nutsedge; Preemergence, Rate 125 g/ha",0
same,Nutsedge plant response rating,purple nutsedge; [3],0
same,Nutsedge plant response rating,purple nutsedge; [4],0
same,Nutsedge plant response rating,purple nutsedge; [5],0
same,"Plant response rating, Nutsedge",purple nutsedge; [6],0
same,Corn plant response rating,corn; [1],0
same,Corn plant response rating (0 to 10 scale),"corn; Preemergence, Rate 125 g/ha",0
same,Corn plant response rating,corn; [2],0
same,Corn plant response rating,corn; [3],0
same,Corn plant response rating,corn; [4],0
same,Corn plant response rating,corn; [5],0
same,"Plant response rating, Corn",corn; [6],0
same,Corn plant response rating,corn; [7],0
same,Wild oats plant response rating,wild oat; [1],0
same,Wild oats plant response rating (0 to 10 scale),"wild oat; Preemergence, Rate 125 g/ha",0
same,Wild oats plant response rating,wild oat; [2],2
same,Wild oats plant response rating,wild oat; [3],5
same,Wild oats plant response rating,wild oat; [4],0
same,Wild oats plant response rating,wild oat; [5],0
same,"Plant response rating, Wild oats",wild oat; [6],0
same,B. signalgrass plant response rating,surinam grass; [1],0
same,"B. signalgrass plant response rating (0 to 10 scale, 0 is no effect, 10 is complete control)","surinam grass; Preemergence, Rate 125 g/ha",0
same,B. signalgrass plant response rating,surinam grass; [2],3
same,B. signalgrass plant response rating,surinam grass; [3],5
same,B. signalgrass plant response rating,surinam grass; [4],0
same,B. signalgrass plant response rating,surinam grass; [5],0
same,"Plant response rating, B. signalgrass",surinam grass; [6],0
same,B. signalgrass plant response rating,surinam grass; [7],0
same,Barnyardgrass plant response rating,bamyardgrass; [8],0
same,Barnyardgrass plant response rating,bamyardgrass; [9],0
same,Barnyardgrass plant response rating,bamyardgrass; [10],0
same,Barnyardgrass plant response rating,bamyardgrass; [11],0
same,S. Flatsedge plant response rating,smallflower flatsedge; [8],0
same,S. Flatsedge plant response rating,smallflower flatsedge; [9],0
same,S. Flatsedge plant response rating,smallflower flatsedge; [10],0
same,S. Flatsedge plant response rating,smallflower flatsedge; [11],0
same,Velvetleaf plant response rating,velvetleaf; [1],0
same,Velvetleaf plant response rating (0 to 10 scale),"velvetleaf; Preemergence, Rate 125 g/ha",0
same,Velvetleaf plant response rating,velvetleaf; [2],0
same,Velvetleaf plant response rating,velvetleaf; [3],0
same,Velvetleaf plant response rating,velvetleaf; [4],0
same,Velvetleaf plant response rating,velvetleaf; [5],0
same,"Plant response rating, Velvetleaf",velvetleaf; [6],0
same,Morningglory plant response rating,morningglory; [1],0
same,Morningglory plant response rating (0 to 10 scale),"morningglory; Preemergence, Rate 125 g/ha",0
same,Morningglory plant response rating,morningglory; [2],0
same,Morningglory plant response rating,morningglory; [3],0
same,Morningglory plant response rating,morningglory; [4],2
same,Morningglory plant response rating,morningglory; [5],7
same,"Plant response rating, Morningglory",morningglory; [6],8
same,Giant foxtail plant response rating,giant foxtail; [1],4
same,Giant foxtail plant response rating (0 to 10 scale),"giant foxtail; Preemergence, Rate 125 g/ha",8
same,Giant foxtail plant response rating,giant foxtail; [2],9
same,Giant foxtail plant response rating,giant foxtail; [3],10
same,Giant foxtail plant response rating,giant foxtail; [4],0
same,Giant foxtail plant response rating,giant foxtail; [5],0
same,"Plant response rating, Giant foxtail",giant foxtail; [6],1
same,Redroot pigweed plant response rating,pigweed; [1],0
same,Redroot pigweed plant response rating (0 to 10 scale),"pigweed; Preemergence, Rate 125 g/ha",0
same,Redroot pigweed plant response rating,pigweed; [2],0
same,Redroot pigweed plant response rating,pigweed; [3],0
same,Redroot pigweed plant response rating,pigweed; [4],2
same,Redroot pigweed plant response rating,pigweed; [5],3
same,"Plant response rating, Redroot pigweed",pigweed; [6],4
same,Soybean plant response rating,soybean; [1],0
same,Soybean plant response rating (0 to 10 scale),"soybean; Preemergence, Rate 125 g/ha",0
same,Soybean plant response rating,soybean; [2],0
same,Soybean plant response rating,soybean; [3],0
same,Soybean plant response rating,soybean; [4],2
same,"Plant response rating, Soybean",soybean; [6],3
same,Blackgrass plant response rating,blackgrass; [1],3
same,Blackgrass plant response rating (0 to 10 scale),"blackgrass; Preemergence, Rate 125 g/ha",6
same,Blackgrass plant response rating,blackgrass; [2],6
same,Blackgrass plant response rating,blackgrass; [3],7
same,Blackgrass plant response rating,blackgrass; [4],0
same,Blackgrass plant response rating,blackgrass; [5],0
same,"Plant response rating, Blackgrass",blackgrass; [6],0
same,Blackgrass plant response rating,blackgrass; [7],4
same,Sugarbeets plant response rating,sugar beet; [1],0
same,Sugarbeets plant response rating (0 to 10 scale),"sugar beet; Preemergence, Rate 125 g/ha",0
same,Sugarbeets plant response rating,sugar beet; [2],0
same,Sugarbeets plant response rating,sugar beet; [3],0
same,Sugarbeets plant response rating,sugar beet; [4],0
same,Sugarbeets plant response rating,sugar beet; [5],0
same,"Plant response rating, Sugarbeets",sugar beet; [6],5
same,Rape plant response rating,rape; [1],0
same,Rape plant response rating (0 to 10 scale),"rape; Preemergence, Rate 125 g/ha",0
same,Rape plant response rating,rape; [2],0
same,Rape plant response rating,rape; [3],0
same,Rape plant response rating,rape; [4],0
same,Rape plant response rating,rape; [5],0
same,"Plant response rating, Rape",rape; [6],0
